# Reference: patent US20110318768A1, “METHOD FOR DETERMINING SENSITIVITY OF TUMOR CELLS TO TYROSINE KINASE INHIBITOR AND COMPUTER PROGRAM PRODUCT” (SYSMEX CORPORATION, priority 2010, published 2011)
# Experiments:
# [1] = system: tyrosine kinase of SK-Br-3; conditions: US 2011027809; cited from earlier work
# tyrosine kinase of MCF7 = conditions: US 2011027809; cited from earlier work
# [2] = system: tyrosine kinase of MDA-MB231; conditions: US 2011027809; cited from earlier work
# tyrosine kinase of T47D = conditions: US 2011027809; cited from earlier work
# [3] = system: tyrosine kinase in measurement samples of lapatinib-insensitive cell line group; assay: Tyrosine kinase activity inhibition, group comparison (FIG. 3); type: biochemical
# Method: (§1) After shaking the measuring plate at 37° C. and 400 rpm for 60 minutes, the solution was removed from the measuring plate, and the wells were washed with 300 μl of TBS-T three times. 100 μl of Starting Block T20 (TBS) (#37543: Pierce) as a blocking solution was added to the wells, followed by blocking at 37° C. and 400 rpm for 10 minutes. The blocking solution was removed from the measuring plate. 100 μl of a solution prepared by diluting HRP-labeled anti-phosphorylated tyrosine antibody (#sc-508 HRP: Santa Cruz) with Starting Block T20 (TBS) at a ratio of 1:1000 was added to the wells, followed by shaking at 37° C. and 400 rpm for 90 minutes. Then, the wells were washed with 300 μl of TBS-T five times. […] Thereafter, the emission from the wells was measured by a GENios microplate reader (manufactured by Tecan Trading AG). The inhibitory capacity of the kinase inhibitors in the measurement sample was evaluated by an inhibition rate (value of “100−{(measurement value of activity in the presence of inhibitors)/(measurement value of activity in the absence of inhibitors)}×100”) calculated base on a ratio of the measurement value of tyrosine kinase activity in the presence of the inhibitors and the measurement value of the control (in the absence of the inhibitors). […]
# [4] = system: tyrosine kinase in measurement samples of lapatinib-sensitive cell line group; assay: as above; type: biochemical
# Method: as §1
smiles,measurement,setting,value
"COc1cc2ncnc(Nc3ccc(Oc4ccccc4)cc3)c2cc1OC [Inhibitor 10, 4-(4′-phenoxyanilino)-6,7-dimethoxyquinazoline]",tyrosine kinase activity inhibitory effects caused by the Src inhibitor,[1],high
same,tyrosine kinase activity inhibitory effects caused by the Src inhibitor,tyrosine kinase of MCF7,low
same,tyrosine kinase activity inhibitory effects caused by the Src inhibitor,[2],low
same,tyrosine kinase activity inhibitory effects caused by the Src inhibitor,tyrosine kinase of T47D,low
same,inhibitory effect of the Src inhibitor on the kinase activity,[3],high
same,inhibitory effect of the Src inhibitor on the kinase activity,[4],low
